The values that follow come from the SangsterLogP compilation.

With `CCCCCCCC1CC(C(=O)Nc2c(C(C)C)cccc2C(C)C)C(=O)O1` (stereo not given), the logP turned out to be 4.72. Consider `CC(C)c1cccc(C(C)C)c1NC(=O)CC(=O)C1(c2ccccc2)CCCC1`, for which the logP is 4.55. The logP values of the last two molecules are within 0.2 log units of each other. For `CC(C)c1cccc(C(C)C)c1NC(=O)CC(=O)C(c1ccccc1)c1ccccc1` the value was 3.96; for `CC(C)c1cccc(C(C)C)c1NC(=O)CC(=O)CCCCCCCCCCO`, 4.2. The molecule `CC(C)c1cccc(C(C)C)c1NC(=O)CC(O)CC(c1ccccc1)c1ccccc1` (stereo not given) showed a logP of 4.01. In the case of `CC(C)c1cccc(C(C)C)c1NC(=O)CC(=O)c1ccccc1` it was 2.87. In the case of `CCCCCCCCCCCC(=O)CC(=O)Nc1c(OC)cc(OC)cc1OC` it was 5.02; in that of `CCCCCCCCCCCC(=O)C(C)(C)C(=O)N(C)c1c(OC)cc(OC)cc1OC`, 6.67; in that of `CC(C)c1cccc(C(C)C)c1NC(=O)CC(CC(c1ccccc1)c1ccccc1)=NO`, 3.93. For the molecule `CCCCCCCCCCCC(=O)C(C)(C)C(=O)Nc1c(OC)cc(OC)cc1OC`, the logP was determined as 4.88.
